The text below walks through data of patent US20230011869A1 (Hoffmann-La Roche Inc., priority 2018, published 2023).

Structures are written as SMILES. Counter-ions that a name gives are not always drawn. Like-named read-outs stand apart in the source and are kept apart here.

This test concerns Acinetobacter baumannii ATCC17978. Kind of test: Antimicrobial susceptibility testing: 90% growth inhibitory concentration (IC90) determination, Iso-Sensitest broth. It is filed as cell-based. In short, it runs like this:
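A. baumannii ATCC17978 grown in Iso-Sensitest broth across 10 compound concentrations at 35±2 °C.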

Where [1] appears, read: Acinetobacter baumannii, ATCC17978, 16 h, read-out: ATCC17978 IC90, 90% growth inhibitory concentration, Acinetobacter baumannii ATCC17978, Iso-Sensitest broth, OD 600 nm over 16 h.
Setting [2] is: 90% growth inhibitory concentration, Acinetobacter baumannii ATCC17978, Iso-Sensitest broth, OD 600 nm over 16 h, read-out: ATCC17978 IC90.

Regarding `Cc1cc(Nc2nccn3c(-c4ccc(OC(F)F)cc4)cnc23)ccc1C(=O)N1CCN(C(=O)[C@H](N)C(C)C)CC1` [Example 258, hydrochloride], under setting [1], the IC90 was determined as 890 nM. For `COc1ccc(-c2cnc3c(Nc4ccc(C(=O)N5CCN(C)CC5)c(C)c4)nccn23)cc1` [Example 5, (4-((3-(4-methoxyphenyl)imidazo[1,2-a]pyrazin-8-yl)amino)-2-methylphenyl)(4-methylpiperazin-1-yl)methanone], the IC90 under setting [2] was found to be 1200 nM. Turning to `Cc1cc(Nc2nccn3c(-c4ccc(OC(F)F)cc4)cnc23)ccc1C(=O)N1CCN(C(=O)C2=CCNCC2)CC1` [Example 447, [4-[[3-[4-(difluoromethoxy)phenyl]imi-dazo[1,2-a]pyrazin-8-yl]amino]-2-methylphenyl]-[4-(1,2,3,6-tetrahydropyridine-4-carbonyl)piperazin-1-yl]methanone; hydrochloride], the IC90 under setting [1] stood at 2000 nM. Still for that read-out and setting: the value for `Cc1cc(Nc2nccn3c(-c4ccc(OC(F)F)cc4)cnc23)ccc1C(=O)N1CCC(C(=O)NC23CN4CN(CN(C4)C2)C3)CC1` [Example 405, 1-[4-[[3-[4-(difluoromethoxy)phenyl]imi-dazo[1,2-a]pyrazin-8-yl]amino]-2-methylbenzoyl]-N-(1,3,5-triazatricyclo[3.3.1.1^3,7]decan-7-yl)piperidine-4-carboxamide] was 480 nM; that for `Cc1cc(Nc2nccn3c(-c4ccc(OC(F)F)cc4)cnc23)ccc1C(=O)N1CCN(C(=O)[C@@H](N)CCC(N)=O)CC1` [Example 525, (4S)-4-amino-5-[4-[4-[[3-[4-(difluoromethoxy)phenyl]imi-dazo[1,2-a]pyrazin-8-yl]amino]-2-methylbenzoyl]piperazin-1-yl]-5-oxopentanamide; hydrochlo-ride] was 510 nM.

Regarding `CCc1cc(Nc2nccn3c(-c4ccc(OC)c(F)c4)cnc23)ccc1C(=O)N1CCN(C(=O)CNC)CC1` [Example 398, 1-[4-[2-ethyl-4-[[3-(3-fluoro-4-methoxyphenyl)imidazo[1,2-a]pyrazin-8-yl]amino]benzoyl]piperazin-1-yl]-2-(methylamino)ethanone; hy-drochloride], under setting [2], the IC90 is 370 nM. For the compound `COc1ccc(-c2cnc3c(Nc4ccc(C(=O)N5CCN(C(=O)[C@@H]6C[C@@H](O)CN6)CC5)c(C)c4)nccn23)c(F)c1F` [Example 471, [4-[[3-(2,3-difluoro-4-methoxyphenyl)imidazo[1,2-a]pyrazin-8-yl]amino]-2-methylphenyl]-[4-[(2S,4R)-4-hydroxypyrrolidine-2-carbonyl]piperazin-1-yl]methanone], the IC90 under setting [2] was 96 nM.

As for `Cc1cc(Nc2nccn3c(-c4ccc(OC(F)F)cc4)cnc23)ccc1C(=O)N1CCN(C(=O)N(C)C)CC1` [Example 135, 4-[4-[[3-[4-(difluoromethoxy)phenyl]imidazo[1,2-a]pyrazin-8-yl]amino]-2-methyl-benzoyl]-N,N-dimethyl-piperazine-1-carboxamide], the IC90 under setting [2] amounted to 280 nM. For `Cc1cc(Nc2nccn3c(-c4ccc(OC(F)F)cc4)cnc23)ccc1C(=O)N1CCN(C(=O)N2CCNC(CN)C2)CC1` (stereo not shown) [Example 500, [4-[3-(aminomethyl)piperazine-1-carbonyl]piperazin-1-yl]-[4-[[3-[4-(difluoromethoxy)phenyl]imi-dazo[1,2-a]pyrazin-8-yl]amino]-2-methylphenyl]methanone; for-mic acid], the IC90 under setting [1] is 390 nM. With `COc1ccc(-c2cnc3c(Nc4ccc(C(=O)N5CC[C@@H](C(=O)N6CCNCC6)[C@H](O)C5)c(C)c4)nccn23)cc1F` (racemic) [Example 440, [4-[[3-(3-fluoro-4-methoxyphenyl)imidazo[1,2-a]pyrazin-8-yl]amino]-2-methylphenyl]-[rac-(3R,4S)-3-hydroxy-4-(piperazine-1-carbonyl)piperidin-1-yl]methanone], under setting [2], the IC90 came out at 950 nM.
